# The supplement of paper PMC10307832
# What was measured:
# Experiment in all cases: relative viability (nuclei count vs DMSO), 5 days (fraction); higher = more cells survive
# EHT 1864 = compound: C1COCCN1CC2=CC(=O)C(=CO2)OCCCCCSC3=C4C=CC(=CC4=NC=C3)C(F)(F)F [EHT 1864]
# Procedure, shortened: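 Lung cancer cell lines received five library-drug doses (not always all listed) spaced by √10, pinned on vehicle-anchored 1536-well plates after an overnight stay at 37 °C. Five days later, with no medium change, nuclei were Hoechst-stained, imaged at 4× and counted with MetaXpress. Viability is treated-well nuclei relative to vehicle-well nuclei, as a median across plates. Passing plates had control CV below 25% and at least one doubling.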
# EHT 1864 + Navitoclax = compound: C1COCCN1CC2=CC(=O)C(=CO2)OCCCCCSC3=C4C=CC(=CC4=NC=C3)C(F)(F)F [EHT 1864] + CC1(C)CCC(c2ccc(Cl)cc2)=C(CN2CCN(c3ccc(C(=O)NS(=O)(=O)c4ccc(N[C@H](CCN5CCOCC5)CSc5ccccc5)c(S(=O)(=O)C(F)(F)F)c4)cc3)CC2)C1 [Navitoclax] (partner 0.5 µM)
# Procedure, shortened: (§1)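 Medians of duplicate plates are given as relative viability. That measure is the nuclei count in treated wells divided by the count in vehicle wells. Counts were taken on 4× images of lung cancer cell lines in 1536-well plates, 5 days after pin-tool dosing the day after seeding with one drug alone or a fixed anchor-drug dose plus five library-drug doses (not always all listed) in √10 steps.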
# EHT 1864 + Tozasertib = compound: C1COCCN1CC2=CC(=O)C(=CO2)OCCCCCSC3=C4C=CC(=CC4=NC=C3)C(F)(F)F [EHT 1864] + Cc1cc(Nc2cc(N3CCN(C)CC3)nc(Sc3ccc(NC(=O)C4CC4)cc3)n2)n[nH]1 [Tozasertib] (partner 0.1 µM)
# Procedure, shortened: as §1
# EHT 1864 + Phenformin = compound: C1COCCN1CC2=CC(=O)C(=CO2)OCCCCCSC3=C4C=CC(=CC4=NC=C3)C(F)(F)F [EHT 1864] + N=C(N)NC(=N)NCCc1ccccc1 [Phenformin] (partner 250 µM)
# Procedure, shortened: as §1
Cell Line,relative viability (EHT 1864; 0.04 µM),relative viability (EHT 1864; 0.1265 µM),relative viability (EHT 1864; 0.4 µM),relative viability (EHT 1864; 1.265 µM),relative viability (EHT 1864; 4 µM),relative viability (EHT 1864 + Navitoclax; first compound 0.04 µM),relative viability (EHT 1864 + Navitoclax; first compound 0.1265 µM),relative viability (EHT 1864 + Navitoclax; first compound 0.4 µM),relative viability (EHT 1864 + Navitoclax; first compound 1.265 µM),relative viability (EHT 1864 + Navitoclax; first compound 4 µM),relative viability (EHT 1864 + Tozasertib; first compound 0.4 µM),relative viability (EHT 1864 + Tozasertib; first compound 1.265 µM),relative viability (EHT 1864 + Tozasertib; first compound 4 µM),relative viability (EHT 1864 + Phenformin; first compound 0.4 µM),relative viability (EHT 1864 + Phenformin; first compound 1.265 µM),relative viability (EHT 1864 + Phenformin; first compound 4 µM),relative viability (EHT 1864 + Tozasertib; first compound 0.04 µM),relative viability (EHT 1864 + Tozasertib; first compound 0.1265 µM),relative viability (EHT 1864 + Phenformin; first compound 0.04 µM),relative viability (EHT 1864 + Phenformin; first compound 0.1265 µM)
NCI-H1650,0.892,0.676,0.907,0.826,0.754,1.12,0.783,1.14,1.4,1.18,0.385,0.355,0.242,0.478,0.435,0.39,–,–,–,–
NCI-H1651,0.944,0.958,0.918,0.949,0.98,1.03,0.947,1.1,1,0.91,0.549,0.479,0.523,0.333,0.345,0.334,0.631,0.705,0.376,0.358
NCI-H1666,1.05,0.879,0.957,0.916,1.08,0.881,0.834,0.957,0.965,0.92,0.543,0.647,0.554,0.584,0.562,0.627,0.646,0.591,0.614,0.504
NCI-H1734,1.07,0.702,1.03,1.09,0.906,0.916,0.828,0.849,0.867,0.747,0.265,0.273,0.259,0.397,0.433,0.432,0.282,–,0.539,–
NCI-H1755,0.989,0.955,0.927,0.979,0.938,1.02,0.927,0.94,0.979,0.869,0.483,0.487,0.536,0.594,0.612,0.629,0.606,0.51,0.607,0.564
NCI-H1793,0.729,0.781,0.929,0.928,0.963,–,0.366,0.485,0.364,0.387,0.341,–,0.285,0.383,–,0.392,0.294,–,0.301,–
NCI-H1915,0.964,–,1.01,0.98,0.92,0.797,–,0.764,0.768,0.792,0.41,0.406,0.392,0.366,0.382,0.374,0.413,–,0.396,–
NCI-H1944,1.09,–,1,1.01,0.879,1.06,–,0.985,1.05,1.06,0.277,0.234,0.292,0.224,0.191,0.199,0.283,–,0.233,–
NCI-H1975,0.886,0.954,0.887,0.841,0.895,1.14,1.19,1.17,0.928,0.875,0.599,–,0.207,0.407,–,0.396,0.852,0.756,0.406,0.42
